In data set [1] the target is HDAC-3 (Homo sapiens, UniProt O15379). Briefly: Human off-target inhibition, HDAC-3. The format is biochemical. The protocol: (§1) To assess the selectivity of the compounds over human MMPs and on other bacterial collagenases, selected compounds were tested against ColG-CU and ColH-PD from C. histolyticum and ColA-CU from B. cereus strain ATCC14579. In addition, the compounds were tested on catalytic domains of three human MMPs, which are characterized by different depths of the S1′ binding pocket (MMP-1 (shallow), −2 (intermediate), and −3 (deep)). They were also tested against other important human off-targets, which are involved in gene expression and the processing of TNF-α; these include HDAC-3, -8, TACE (ADAM-17),[33],[34] and COX-1.
Chain of HDAC-3 (O15379 whole entry, the tested form may be a part): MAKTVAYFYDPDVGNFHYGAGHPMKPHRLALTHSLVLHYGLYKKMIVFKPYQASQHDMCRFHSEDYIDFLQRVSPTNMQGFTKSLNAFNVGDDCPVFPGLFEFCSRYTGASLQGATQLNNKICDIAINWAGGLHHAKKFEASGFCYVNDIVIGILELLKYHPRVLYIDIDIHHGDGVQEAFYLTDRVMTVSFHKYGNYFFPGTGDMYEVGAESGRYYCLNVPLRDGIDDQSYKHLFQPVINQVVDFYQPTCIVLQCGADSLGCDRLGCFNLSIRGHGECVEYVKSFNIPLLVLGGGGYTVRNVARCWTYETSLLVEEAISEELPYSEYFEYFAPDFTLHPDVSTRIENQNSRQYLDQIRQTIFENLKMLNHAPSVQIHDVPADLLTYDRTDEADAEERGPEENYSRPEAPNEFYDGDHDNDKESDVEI
Chain of HDAC-3 (Q9Y618 395-489 partner limits assumed): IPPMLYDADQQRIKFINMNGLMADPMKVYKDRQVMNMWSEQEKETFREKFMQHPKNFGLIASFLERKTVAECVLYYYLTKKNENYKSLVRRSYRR

Data set [2] deals with B. cereus AH187. Briefly: B. cereus growth inhibition assay. It counts as cell-based. The note with it: Bacillus cereus, AH187; BHI medium, 37 °C, 48 h, 200–3 μM; read-out: MIC50 (µM) AH187.
Data set [3] in a line: in vitro. The conditions noted are these: human, HEK293 cells (embryonal kidney).
The target of data set [4] is ColQ1-FL (Bacillus cereus, UniProt B9J3S4). The format is biochemical. The note with it: SDS-PAGE.
Chain of ColQ1-FL (B9J3S4 94-965 limits assumed): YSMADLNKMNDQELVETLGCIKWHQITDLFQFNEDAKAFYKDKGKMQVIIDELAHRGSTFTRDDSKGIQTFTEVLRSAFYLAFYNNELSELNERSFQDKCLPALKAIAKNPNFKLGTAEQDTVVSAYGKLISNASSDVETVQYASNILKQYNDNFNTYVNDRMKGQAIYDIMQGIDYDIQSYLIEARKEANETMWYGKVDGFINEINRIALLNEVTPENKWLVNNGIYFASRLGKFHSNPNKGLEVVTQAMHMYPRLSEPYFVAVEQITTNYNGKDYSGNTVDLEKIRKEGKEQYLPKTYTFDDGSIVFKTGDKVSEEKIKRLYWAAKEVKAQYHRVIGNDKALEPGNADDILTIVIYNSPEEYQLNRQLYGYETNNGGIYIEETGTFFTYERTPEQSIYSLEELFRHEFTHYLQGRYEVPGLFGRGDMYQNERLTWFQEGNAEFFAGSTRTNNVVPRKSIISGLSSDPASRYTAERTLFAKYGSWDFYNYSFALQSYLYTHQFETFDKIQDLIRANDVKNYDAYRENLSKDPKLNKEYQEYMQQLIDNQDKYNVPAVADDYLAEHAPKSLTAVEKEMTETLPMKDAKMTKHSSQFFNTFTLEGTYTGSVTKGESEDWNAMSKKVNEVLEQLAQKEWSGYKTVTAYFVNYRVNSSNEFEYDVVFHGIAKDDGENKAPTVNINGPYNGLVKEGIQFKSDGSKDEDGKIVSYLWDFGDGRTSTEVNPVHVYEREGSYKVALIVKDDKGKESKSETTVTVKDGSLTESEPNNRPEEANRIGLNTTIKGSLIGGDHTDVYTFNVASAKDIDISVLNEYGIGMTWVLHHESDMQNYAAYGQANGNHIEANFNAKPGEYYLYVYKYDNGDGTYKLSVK
Data set [5] addresses ColQ1-CU (Bacillus cereus, UniProt B9J3S4). Briefly: biochemical. On the set-up: species or system B. cereus strain Q1.
In data set [6] the test system is NHDF cells infected with B. cereus. Briefly: NHDF infection model, cell morphology/attachment and fibrillar collagen (picrosirius red). The format is cell-based, human. The note with it: B. cereus infection, 5 h.
In data set [7] the target is T1, HDAC-8 (Homo sapiens, UniProt Q9BY41).
T1 sequence (Q9BY41 1-377): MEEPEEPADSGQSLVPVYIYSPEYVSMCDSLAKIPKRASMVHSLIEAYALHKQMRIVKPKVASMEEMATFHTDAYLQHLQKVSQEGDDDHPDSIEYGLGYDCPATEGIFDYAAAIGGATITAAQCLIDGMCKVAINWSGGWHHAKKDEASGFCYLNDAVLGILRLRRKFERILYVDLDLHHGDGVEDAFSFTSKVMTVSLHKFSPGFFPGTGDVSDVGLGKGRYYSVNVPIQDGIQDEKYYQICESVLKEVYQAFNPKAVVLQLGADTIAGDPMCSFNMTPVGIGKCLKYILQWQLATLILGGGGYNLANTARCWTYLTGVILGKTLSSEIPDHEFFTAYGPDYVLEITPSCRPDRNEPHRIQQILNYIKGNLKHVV
Briefly: Human off-target inhibition, HDAC-8. It counts as biochemical. The method, then: as §1

The target of data set [8] is T2, MMP-3 (Homo sapiens, UniProt P08254).
T2 construct: catalytic domains of three human MMPs; purchased Sigma-Aldrich
T2 sequence (P08254 100-272 limits assumed): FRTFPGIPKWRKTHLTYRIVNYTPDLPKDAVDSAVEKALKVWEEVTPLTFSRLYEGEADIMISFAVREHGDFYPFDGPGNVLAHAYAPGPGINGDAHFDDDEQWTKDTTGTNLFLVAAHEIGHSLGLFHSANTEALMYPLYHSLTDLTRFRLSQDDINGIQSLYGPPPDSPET
Briefly: MMP inhibition assay, MMP-3. The format is biochemical. The protocol: as §1
(§2) The MMP inhibition assay (Sigma-Aldrich, Saint Louise, MO) was performed as previously reported and in accordance with the manufacturer’s instructions. The fluorescence signals were measured in a CLARIOstar plate reader (BMG LABTECH, Ortenberg, Germany) at a concentration of 100 μM.

In data set [9] the target is COX-1 (Homo sapiens, UniProt P23219). Briefly: Human off-target inhibition, COX-1. It counts as biochemical. The method, then:
as §1

Data set [10] has as its target ColH-PD (Hathewaya histolytica, UniProt Q46085). Briefly: biochemical. The format is biochemical, C. histolyticum. The note with it: 100 μM; read-out: Percent inhibition of ColH-PD.
In data set [11] the target is ColA-CU (Bacillus cereus, UniProt Q81BJ6). Briefly: biochemical. It counts as biochemical, B. cereus strain ATCC14579. The note with it: 100 μM; read-out: Percent inhibition of ColA-CU.
Chain of ColA-CU (Q81BJ6 93-764): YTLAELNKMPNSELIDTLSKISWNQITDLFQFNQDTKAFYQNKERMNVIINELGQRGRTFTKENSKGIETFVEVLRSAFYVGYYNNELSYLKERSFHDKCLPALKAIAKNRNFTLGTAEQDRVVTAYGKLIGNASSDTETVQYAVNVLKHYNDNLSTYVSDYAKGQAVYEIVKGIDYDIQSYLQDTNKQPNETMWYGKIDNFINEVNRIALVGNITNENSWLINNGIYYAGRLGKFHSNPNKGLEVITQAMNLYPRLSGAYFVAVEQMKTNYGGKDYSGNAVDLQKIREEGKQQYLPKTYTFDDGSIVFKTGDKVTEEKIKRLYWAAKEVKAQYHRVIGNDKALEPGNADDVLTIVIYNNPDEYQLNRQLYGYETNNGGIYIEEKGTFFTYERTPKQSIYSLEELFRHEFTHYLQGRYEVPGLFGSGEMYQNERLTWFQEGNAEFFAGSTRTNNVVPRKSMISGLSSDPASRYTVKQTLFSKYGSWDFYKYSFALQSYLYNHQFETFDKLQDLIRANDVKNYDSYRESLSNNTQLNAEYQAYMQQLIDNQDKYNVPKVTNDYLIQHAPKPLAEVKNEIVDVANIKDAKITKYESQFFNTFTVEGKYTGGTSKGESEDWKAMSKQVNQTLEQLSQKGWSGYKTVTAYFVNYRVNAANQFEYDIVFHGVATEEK
A short description of data set [12]: in vitro. The conditions noted are these: human, HepG2 cells (hepatocellular carcinoma).
For data set [13], the system named is B. cereus collagenases released in the NHDF infection model. It counts as cell-based, B. cereus AH187.
Data set [14] has as its target TACE (ADAM-17) (Homo sapiens, UniProt P78536). Briefly: Human off-target inhibition, TACE. It counts as biochemical. The method, then:
as §1

Data set [15] is described as follows: in vitro. The note with it: human, NHDF cells (normal human dermal fibroblasts).
In data set [16] the test system is MDCK II cells infected with B. cereus AH187. It counts as cell-based, canine.
Data set [17] concerns B. cereus AH187 infection. It counts as in vivo, Galleria mellonella. The note with it: for Survival of infected larvae vs control without inhibitor: 37 °C, 3 days.
Data set [18] can be described thus: in vitro. The conditions noted are these: dog, MDCK II cells (Madin–Darby canine kidney II).
Data set [19] addresses T3, MMP-1 (Homo sapiens, UniProt P03956).
T3 construct: catalytic domains of three human MMPs; purchased Sigma-Aldrich
T3 sequence (P03956 98-276 limits assumed): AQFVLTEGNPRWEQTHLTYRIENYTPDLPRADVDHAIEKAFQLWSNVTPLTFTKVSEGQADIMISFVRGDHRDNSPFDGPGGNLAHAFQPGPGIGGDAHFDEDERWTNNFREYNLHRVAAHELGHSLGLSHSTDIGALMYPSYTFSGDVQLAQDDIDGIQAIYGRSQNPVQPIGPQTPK
Briefly: MMP inhibition assay, MMP-1. The format is biochemical. The protocol: as §1, §2

The target in data set [20] is T4, MMP-2 (Homo sapiens, UniProt P08253).
T4 construct: catalytic domains of three human MMPs; purchased Sigma-Aldrich
T4 sequence (P08253 110-444 limits assumed): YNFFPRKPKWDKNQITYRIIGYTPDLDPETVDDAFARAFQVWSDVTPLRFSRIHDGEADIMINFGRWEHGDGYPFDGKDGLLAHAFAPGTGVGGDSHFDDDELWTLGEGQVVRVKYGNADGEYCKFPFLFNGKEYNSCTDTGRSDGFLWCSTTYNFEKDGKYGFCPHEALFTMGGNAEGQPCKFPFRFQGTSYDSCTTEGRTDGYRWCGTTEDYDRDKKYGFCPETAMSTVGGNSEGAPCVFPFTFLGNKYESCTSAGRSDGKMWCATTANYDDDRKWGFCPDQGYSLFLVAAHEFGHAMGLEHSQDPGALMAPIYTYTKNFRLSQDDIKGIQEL
Briefly: MMP inhibition assay, MMP-2. It counts as biochemical. The method, then: as §1, §2

Structures are written as SMILES. In brackets after ≈: the same amount, converted by molar mass. Read-outs that look alike come from different tables or passages of the source.

Chain of ColQ1-CU (B9J3S4 94-765 limits assumed): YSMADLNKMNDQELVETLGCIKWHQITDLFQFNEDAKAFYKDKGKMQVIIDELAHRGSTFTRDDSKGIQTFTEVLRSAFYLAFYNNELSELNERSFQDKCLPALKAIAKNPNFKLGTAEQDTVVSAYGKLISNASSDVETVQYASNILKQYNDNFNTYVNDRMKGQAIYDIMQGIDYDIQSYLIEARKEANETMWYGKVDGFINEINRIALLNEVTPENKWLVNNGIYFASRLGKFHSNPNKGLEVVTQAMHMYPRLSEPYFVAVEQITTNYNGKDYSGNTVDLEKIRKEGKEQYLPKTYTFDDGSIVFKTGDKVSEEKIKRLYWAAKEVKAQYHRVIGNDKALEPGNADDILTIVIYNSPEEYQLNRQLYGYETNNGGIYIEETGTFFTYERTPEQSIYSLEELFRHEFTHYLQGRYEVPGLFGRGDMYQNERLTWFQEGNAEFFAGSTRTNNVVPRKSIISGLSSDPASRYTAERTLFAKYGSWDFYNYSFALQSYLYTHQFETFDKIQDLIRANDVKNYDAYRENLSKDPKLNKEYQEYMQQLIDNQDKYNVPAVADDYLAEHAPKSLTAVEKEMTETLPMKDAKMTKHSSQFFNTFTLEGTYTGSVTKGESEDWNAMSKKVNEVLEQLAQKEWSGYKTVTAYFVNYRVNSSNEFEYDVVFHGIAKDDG
Chain of COX-1 (P23219 24-599): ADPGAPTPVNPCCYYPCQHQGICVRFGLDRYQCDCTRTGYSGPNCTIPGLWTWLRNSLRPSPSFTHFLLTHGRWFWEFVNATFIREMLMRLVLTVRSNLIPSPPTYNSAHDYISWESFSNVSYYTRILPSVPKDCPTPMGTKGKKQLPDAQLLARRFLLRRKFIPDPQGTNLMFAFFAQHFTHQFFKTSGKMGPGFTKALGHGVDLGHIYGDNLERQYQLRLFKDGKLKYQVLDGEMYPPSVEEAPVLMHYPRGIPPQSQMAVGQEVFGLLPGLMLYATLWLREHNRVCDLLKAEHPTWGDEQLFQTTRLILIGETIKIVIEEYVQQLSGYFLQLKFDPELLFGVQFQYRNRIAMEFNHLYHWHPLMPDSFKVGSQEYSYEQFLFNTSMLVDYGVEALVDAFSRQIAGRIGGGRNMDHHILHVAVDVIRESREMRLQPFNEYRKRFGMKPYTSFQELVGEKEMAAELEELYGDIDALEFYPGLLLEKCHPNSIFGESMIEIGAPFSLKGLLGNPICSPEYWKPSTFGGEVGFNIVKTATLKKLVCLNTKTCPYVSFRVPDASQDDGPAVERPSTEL
Chain of TACE (ADAM-17) (P78536 215-824): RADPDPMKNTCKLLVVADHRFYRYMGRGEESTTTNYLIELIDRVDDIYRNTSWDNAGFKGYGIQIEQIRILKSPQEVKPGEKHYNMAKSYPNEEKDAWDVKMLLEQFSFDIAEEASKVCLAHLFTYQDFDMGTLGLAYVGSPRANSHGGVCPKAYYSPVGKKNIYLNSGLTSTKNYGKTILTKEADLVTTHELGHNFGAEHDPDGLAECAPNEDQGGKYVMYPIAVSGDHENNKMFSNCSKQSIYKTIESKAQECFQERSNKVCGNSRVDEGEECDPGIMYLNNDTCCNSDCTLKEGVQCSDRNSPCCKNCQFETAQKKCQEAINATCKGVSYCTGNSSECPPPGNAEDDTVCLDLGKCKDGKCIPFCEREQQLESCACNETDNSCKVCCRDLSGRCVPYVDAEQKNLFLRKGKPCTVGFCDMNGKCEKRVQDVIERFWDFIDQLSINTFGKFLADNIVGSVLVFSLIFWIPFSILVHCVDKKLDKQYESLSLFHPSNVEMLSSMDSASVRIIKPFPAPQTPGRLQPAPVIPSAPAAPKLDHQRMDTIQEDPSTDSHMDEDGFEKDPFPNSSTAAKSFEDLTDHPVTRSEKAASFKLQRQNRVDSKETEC
Chain of ColH-PD (Q46085 331-721 limits assumed): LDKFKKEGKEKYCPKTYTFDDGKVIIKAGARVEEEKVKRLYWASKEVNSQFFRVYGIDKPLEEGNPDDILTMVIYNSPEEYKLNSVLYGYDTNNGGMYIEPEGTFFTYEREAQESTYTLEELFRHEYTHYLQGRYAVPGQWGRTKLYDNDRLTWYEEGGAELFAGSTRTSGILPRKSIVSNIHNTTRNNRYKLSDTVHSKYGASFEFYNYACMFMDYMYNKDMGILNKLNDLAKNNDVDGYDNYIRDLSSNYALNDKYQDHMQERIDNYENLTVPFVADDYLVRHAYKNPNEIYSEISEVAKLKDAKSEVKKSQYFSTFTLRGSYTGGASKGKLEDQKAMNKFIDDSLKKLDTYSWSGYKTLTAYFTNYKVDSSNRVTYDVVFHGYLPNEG

Consider `O=P(O)(O)c1nc2cc(Cl)c(Cl)cc2nc1P(=O)(O)O` [Compound 13, (6,7-Dichloroquinoxaline-2,3-diyl)bis(phosphonic acid)], for which the half-maximal inhibitory concentration (IC50) in data set [1] is more than 100 µM; in data set [3] it was 100 µM; in data set [5], 5.2 ± 0.4 µM; in [7], more than 100 µM; in [8], 33 ± 11 µM; in data set [9] it was more than 100 µM. The IC50 in data set [12] is more than 100 µM; in [14] it was more than 100 µM; in data set [15] it was more than 200 µM; in [18], more than 200 µM; in data set [19], 53 ± 3 µM; in data set [20], 79 ± 2 µM. Further, the MIC50 in data set [2] came to 200 µM (≈ 71.8 µg/mL). In addition, the “Concentration above which Col I chains were maintained” value in data set [4] (1 mg/mL Col I, 50 ng ColQ1-FL) was “above 3 μM”. The inhibition at 100 µM in [5] (read-out: % Inhibition (ColQ1-CU) Mean) is 98 ± 1%; in data set [10], 83 ± 9%; in [11] it was 71 ± 4%. Also, in data set [6], the “Concentration above which infected cells were sustained (attached, spindle shape)” value was more than 25 µM. Also, the “Concentration giving complete inhibition of gelatinolytic activity” value in data set [13] is 200 µM. Besides, in [16], the “TEER of infected MDCK II cells” value was “failed to sustain the TEER of the infected cells”. Besides, the entries for the “Increase in survival of infected larvae” value in data set [17] (50 μM) and in [17] (200 μM) were 5% and “about 35%”, respectively. Moreover, the “Survival of infected larvae vs control without inhibitor” value in [17] was “ameliorated the survival of the larvae in a dose-dependent manner”.
`O=C(Nc1ccc(Cl)c(Cl)c1)c1ccc2nc(P(=O)(O)O)c(P(=O)(O)O)nc2c1` [Compound 14, (6-((3,4-Dichlorophenyl)carbamoyl)quinoxaline-2,3-diyl)bis(phosphonic acid)]: the IC50 was more than 100 µM in data set [1]; more than 100 µM in data set [3]; 16 ± 1 µM in data set [5]; more than 100 µM in data set [7]; more than 100 µM in [8]; more than 100 µM in [9]. Besides, the IC50 in data set [12], in data set [14], in data set [15], in data set [18], in [19] and in data set [20] was more than 100 µM in each case. Also, the MIC50 in [2] is 100 µM (≈ 47.8 µg/mL). In addition, the “Protection of Col I chains from cleavage by ColQ1-FL” value in data set [4] (12.5–1.5 μM tested) is given as “inhibited the collagenase activity at all concentrations tested”. The “Concentration above which infected cells were sustained (attached, spindle shape)” value in data set [6] is more than 25 µM. Besides, the values for the inhibition at 100 µM in data set [10] and in [11] were 96 ± 2% and 82 ± 2%, respectively. Also, the “Concentration giving complete inhibition of gelatinolytic activity” value in data set [13] turned out to be 100 µM. Moreover, the “TEER of infected MDCK II cells” value in data set [16] is reported as “preserve the TEER value”. The “Effect on survival of infected larvae” value in [17] (25 μM) is “reduced effect”. In addition, the “Increase in survival of infected larvae” value in data set [17] (100 μM) was “around 50%”. For the same molecule, the “Survival of infected larvae vs control without inhibitor” value in [17] is on record as “ameliorated the survival of the larvae in a dose-dependent manner”.
